# How the values were obtained:
# [1] = Stability assessment: storage of the solid sample, then HPLC analysis; format: physicochemical; settings: in % (unit assumed); for Stability result (HPLC analysis), Open ACC: open state, accelerated condition (40° C., 75% RH); for Stability result (HPLC analysis), Closed STR: sealed state, harsh condition, oven at 80° C.
# Procedure: About 10-30 mg of the sample was stored for 4 weeks in an open state under the accelerated condition (40° C., 75% RH) or in a sealed state under the harsh condition in an oven at 80° C.
# [2] = as above; format: physicochemical; settings: in % (unit assumed)
compound,measurement,setting,value
"CC(C)C(=O)N([C@H]1C[C@@H](C(=O)N2CCOCC2)N(C(=O)[C@@H]2CN(C(C)(C)C)C[C@H]2c2ccc(Cl)cc2)C1)[C@H]1CC[C@@H](C)CC1.Cl [Example 1, N-((3S,5S)-1-((3S,4R)-1-(tert-butyl)-4-(4-chlorophenyl)pyrrolidine-3-carbonyl)-5-(morpholine-4-carbonyl)pyrrolidin-3-yl)-N-((1s,4R)-4-methylcyclohexyl)isobutyramide hydrochloride]","Stability result (HPLC analysis), Open ACC",[1]; Day 3,97.95
same,"Stability result (HPLC analysis), Closed STR",[1]; Day 3,97.94
same,Stability result (HPLC analysis),[1]; Initial,97.94
same,"Stability result (HPLC analysis), Open ACC",[1]; Week 1,98.04
same,"Stability result (HPLC analysis), Closed STR",[1]; Week 1,97.83
same,"Stability result (HPLC analysis), Open ACC",[1]; Week 2,98.04
same,"Stability result (HPLC analysis), Closed STR",[1]; Week 2,97.88
same,"Stability result (HPLC analysis), Open ACC",[1]; Week 4,97.68
same,"Stability result (HPLC analysis), Closed STR",[1]; Week 4,97.10
same,"Stability result (HPLC analysis), Closed RT","[2]; Week 2, stored at room temperature",97.86
same,"Stability result (HPLC analysis), Closed RT","[2]; Week 4, stored at room temperature",97.27

# Reference: US20250179016A1, “AMORPHOUS MELANOCORTIN-4 RECEPTOR AGONIST” (LG CHEM, LTD., priority 2020, published 2025)
